What was measured:
[1] = molecular target: T1, Dihydrofolate reductase (Bos taurus) (UniProt P00376)
T1 sequence (whole entry): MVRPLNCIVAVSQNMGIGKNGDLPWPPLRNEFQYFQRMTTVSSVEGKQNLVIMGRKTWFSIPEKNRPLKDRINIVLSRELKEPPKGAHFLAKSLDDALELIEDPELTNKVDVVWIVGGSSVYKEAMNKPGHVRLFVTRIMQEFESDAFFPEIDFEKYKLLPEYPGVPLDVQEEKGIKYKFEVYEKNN
Description: Inhibition of dihydrofolate reductase from bovine liver

[2] = molecular target: T2, Dihydrofolate reductase (Escherichia coli) (UniProt P0ABQ4)
T2 sequence (whole entry): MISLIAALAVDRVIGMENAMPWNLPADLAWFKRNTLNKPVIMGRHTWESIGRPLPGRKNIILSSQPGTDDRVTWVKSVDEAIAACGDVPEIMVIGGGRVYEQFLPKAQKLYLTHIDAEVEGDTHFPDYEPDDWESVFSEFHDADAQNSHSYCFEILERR
Description: Compound is evaluated for the inhibition of dihydrofolate reductase from Escherichia coli

Row | Log 1/Ki app [1] | Log 1/Ki app [2] | Compound
1 | 5.53 |  | Nc1ncc(Cc2cccc(C(F)(F)F)c2)c(N)n1
2 | 5.58 | 6.92 | CS(=O)(=O)Oc1cccc(Cc2cnc(N)nc2N)c1
3 | 4.88 |  | COCCOc1c(OC)cc(Cc2cnc(N)nc2N)cc1OC
4 | 5.15 |  | COc1ccc(Cc2cnc(N)nc2N)cc1OC
5 | 5.49 |  | COCc1cccc(Cc2cnc(N)nc2N)c1

More lines, now with the values behind:

Row | Compound | Log 1/Ki app [1] | Log 1/Ki app [2]
6 | Nc1ncc(Cc2cccc(CO)c2)c(N)n1 | 5.2 | 
7 | Nc1ncc(Cc2cccc(I)c2)c(N)n1 | 6.15 | 
8 | CC(=O)Nc1ccc(Cc2cnc(N)nc2N)cc1[N+](=O)[O-] | 5.16 | 6.97
9 | Nc1ccc(Cc2cnc(N)nc2N)cc1 | 4.57 | 
10 | Cc1ccc(Cc2cnc(N)nc2N)cc1 | 4.8 | 
11 | CCCCOCc1cccc(Cc2cnc(N)nc2N)c1 | 5.86 | 
12 | Nc1ncc(Cc2cccc(O)c2)c(N)n1 | 4.88 | 
13 | Nc1ncc(Cc2ccc(OC(F)(F)F)cc2)c(N)n1 | 5.42 | 6.57
14 | CCCCOc1ccc(Cc2cnc(N)nc2N)cc1 | 5.74 | 

From ChEMBL document CHEMBL1121828, “Quantitative structure-selectivity relationships. Comparison of the inhibition of Escherichia coli and bovine liver dihydrofolate reductase by 5-(substituted-benzyl)-2,4-diaminopyrimidines” (J Med Chem, 1981)
